Assay results published in patent publication EP4467141A1, “PYRAZOLO-QUINOLINES AS SELECTIVE INHIBITORS OF GENOTOXIC STRESS-INDUCED IKK/NF- KB PATHWAYS FOR CANCER THERAPY” (Max-Delbrück-Centrum für Molekulare Medizin in der …, priority 2023, dated 2024).

Experiments:
Assay in all cases: Kinase panel study
Format in all cases: biochemical
Details in all cases: read-out: Percentage of inhibition; for inhibition at 1 µM: 1000nM; for inhibition at 10 µM: 10000nM
ROCK1 = biological target: T1, ROCK1 (Homo sapiens, UniProt Q13464)
T1 construct: purchased Thermo Fisher Scientific
Summary of the method: (§1)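 Lead compounds and derivatives were profiled by ZLyte or Adapta in vitro kinase assays. Each value reports inhibition percentage at one of two concentrations, 1 µM or 10 µM.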

KSR2 = biological target: T2, KSR2 (Homo sapiens, UniProt Q6VAB6)
T2 construct: purchased Thermo Fisher Scientific
T2 sequence (Q6VAB6 1-950): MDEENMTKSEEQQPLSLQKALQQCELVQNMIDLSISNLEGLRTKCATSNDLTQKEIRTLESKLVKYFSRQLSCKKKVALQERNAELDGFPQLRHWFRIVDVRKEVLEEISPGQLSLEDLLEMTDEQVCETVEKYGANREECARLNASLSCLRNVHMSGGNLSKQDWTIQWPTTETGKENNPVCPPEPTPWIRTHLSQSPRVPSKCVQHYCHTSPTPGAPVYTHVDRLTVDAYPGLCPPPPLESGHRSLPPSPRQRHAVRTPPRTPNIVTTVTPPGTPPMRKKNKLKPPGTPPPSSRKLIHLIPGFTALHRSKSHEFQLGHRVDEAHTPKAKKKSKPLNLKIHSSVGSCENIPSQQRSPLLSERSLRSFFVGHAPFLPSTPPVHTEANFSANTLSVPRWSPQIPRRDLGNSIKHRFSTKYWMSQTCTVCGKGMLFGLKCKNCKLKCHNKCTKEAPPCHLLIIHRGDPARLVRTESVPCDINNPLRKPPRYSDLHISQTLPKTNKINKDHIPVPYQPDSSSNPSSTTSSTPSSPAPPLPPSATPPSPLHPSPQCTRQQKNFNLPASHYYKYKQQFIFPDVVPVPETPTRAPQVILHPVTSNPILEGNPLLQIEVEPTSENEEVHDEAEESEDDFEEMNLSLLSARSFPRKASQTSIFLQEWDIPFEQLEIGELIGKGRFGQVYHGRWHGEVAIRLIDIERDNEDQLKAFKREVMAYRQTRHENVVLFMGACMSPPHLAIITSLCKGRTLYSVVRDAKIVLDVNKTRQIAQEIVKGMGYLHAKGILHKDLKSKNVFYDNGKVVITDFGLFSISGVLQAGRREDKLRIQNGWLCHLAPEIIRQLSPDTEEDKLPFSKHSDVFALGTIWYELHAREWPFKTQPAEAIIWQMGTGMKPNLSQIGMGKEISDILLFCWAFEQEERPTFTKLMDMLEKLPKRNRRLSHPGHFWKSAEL
Summary of the method: as §1

NEK1 = biological target: T3, NEK1 (Homo sapiens, UniProt Q96PY6)
T3 construct: purchased Thermo Fisher Scientific
T3 sequence (Q96PY6 1-1258): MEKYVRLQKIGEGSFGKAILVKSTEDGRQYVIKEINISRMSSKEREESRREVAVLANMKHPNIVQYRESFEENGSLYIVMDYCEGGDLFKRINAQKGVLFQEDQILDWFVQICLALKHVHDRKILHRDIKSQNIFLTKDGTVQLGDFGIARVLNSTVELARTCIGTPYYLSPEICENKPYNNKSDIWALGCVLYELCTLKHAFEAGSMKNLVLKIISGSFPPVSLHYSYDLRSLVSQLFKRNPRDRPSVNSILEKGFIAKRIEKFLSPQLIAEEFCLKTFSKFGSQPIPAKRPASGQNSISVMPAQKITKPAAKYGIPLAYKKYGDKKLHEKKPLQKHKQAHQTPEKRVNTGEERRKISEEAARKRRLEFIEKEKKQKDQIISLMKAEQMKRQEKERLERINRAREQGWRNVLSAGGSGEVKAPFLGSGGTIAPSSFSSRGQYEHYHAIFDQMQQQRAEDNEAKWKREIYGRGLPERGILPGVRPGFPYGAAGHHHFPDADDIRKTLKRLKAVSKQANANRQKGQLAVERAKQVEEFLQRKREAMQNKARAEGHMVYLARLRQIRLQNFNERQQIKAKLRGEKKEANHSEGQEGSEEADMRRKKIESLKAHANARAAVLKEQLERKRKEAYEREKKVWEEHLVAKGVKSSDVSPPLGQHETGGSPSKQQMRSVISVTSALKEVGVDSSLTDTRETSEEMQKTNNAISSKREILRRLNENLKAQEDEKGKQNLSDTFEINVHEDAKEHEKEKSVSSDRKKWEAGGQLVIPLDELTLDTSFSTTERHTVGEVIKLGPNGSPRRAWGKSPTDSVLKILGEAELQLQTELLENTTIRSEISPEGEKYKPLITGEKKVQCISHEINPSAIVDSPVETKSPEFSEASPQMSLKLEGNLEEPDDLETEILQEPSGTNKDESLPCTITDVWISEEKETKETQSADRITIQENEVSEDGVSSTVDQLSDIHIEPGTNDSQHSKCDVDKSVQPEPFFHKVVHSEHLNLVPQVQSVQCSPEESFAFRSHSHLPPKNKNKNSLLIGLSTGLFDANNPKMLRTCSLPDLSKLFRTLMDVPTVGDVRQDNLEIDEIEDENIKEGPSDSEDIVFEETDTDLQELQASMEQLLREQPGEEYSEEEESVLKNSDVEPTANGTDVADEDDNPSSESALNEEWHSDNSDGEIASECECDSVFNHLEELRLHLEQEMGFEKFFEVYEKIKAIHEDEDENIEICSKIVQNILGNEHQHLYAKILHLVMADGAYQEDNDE
Summary of the method: as §1

T1 sequence (Q13464 whole entry): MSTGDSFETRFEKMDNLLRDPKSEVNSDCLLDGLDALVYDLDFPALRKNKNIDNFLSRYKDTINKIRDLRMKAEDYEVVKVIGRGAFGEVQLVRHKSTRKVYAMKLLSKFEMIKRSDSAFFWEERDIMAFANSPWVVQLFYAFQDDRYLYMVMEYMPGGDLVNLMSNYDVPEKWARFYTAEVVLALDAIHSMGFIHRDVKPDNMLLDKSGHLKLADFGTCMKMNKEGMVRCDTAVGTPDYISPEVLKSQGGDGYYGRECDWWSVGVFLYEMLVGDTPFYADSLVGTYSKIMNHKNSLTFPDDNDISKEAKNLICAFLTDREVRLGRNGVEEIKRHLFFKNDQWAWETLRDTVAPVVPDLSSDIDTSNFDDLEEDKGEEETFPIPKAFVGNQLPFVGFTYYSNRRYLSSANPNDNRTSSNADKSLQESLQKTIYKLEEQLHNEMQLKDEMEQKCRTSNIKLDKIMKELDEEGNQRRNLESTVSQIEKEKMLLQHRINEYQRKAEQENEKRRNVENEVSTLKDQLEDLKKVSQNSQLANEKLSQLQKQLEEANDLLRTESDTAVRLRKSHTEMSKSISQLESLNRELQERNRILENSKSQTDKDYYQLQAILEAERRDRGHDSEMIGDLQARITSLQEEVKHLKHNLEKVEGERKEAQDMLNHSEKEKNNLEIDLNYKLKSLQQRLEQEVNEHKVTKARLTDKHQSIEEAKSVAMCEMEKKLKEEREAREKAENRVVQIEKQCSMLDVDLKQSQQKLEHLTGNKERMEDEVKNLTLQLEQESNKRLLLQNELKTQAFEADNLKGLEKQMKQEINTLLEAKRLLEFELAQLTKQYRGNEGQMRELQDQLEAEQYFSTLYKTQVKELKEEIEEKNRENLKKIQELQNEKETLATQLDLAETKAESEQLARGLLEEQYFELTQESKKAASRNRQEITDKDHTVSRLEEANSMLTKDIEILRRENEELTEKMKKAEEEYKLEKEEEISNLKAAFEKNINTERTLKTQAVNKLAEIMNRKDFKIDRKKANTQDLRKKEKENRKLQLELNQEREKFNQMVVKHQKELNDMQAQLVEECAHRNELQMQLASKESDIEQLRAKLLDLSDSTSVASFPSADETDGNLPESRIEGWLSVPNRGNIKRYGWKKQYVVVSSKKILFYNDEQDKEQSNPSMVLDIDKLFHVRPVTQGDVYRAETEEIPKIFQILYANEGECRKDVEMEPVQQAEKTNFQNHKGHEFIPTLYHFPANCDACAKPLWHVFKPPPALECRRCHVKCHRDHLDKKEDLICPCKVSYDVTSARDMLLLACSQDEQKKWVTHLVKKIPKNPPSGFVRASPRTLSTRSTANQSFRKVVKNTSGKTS

SMILES	inhibition at 1 µM (ROCK1)	inhibition at 10 µM (ROCK1)	inhibition at 1 µM (KSR2)	inhibition at 10 µM (KSR2)	inhibition at 1 µM (NEK1)	inhibition at 10 µM (NEK1)
COc1ccc2cc3c(N)nn(C(=O)c4cccc(N(C)C)c4)c3nc2c1 [MW05, (3-Amino-7-methoxypyrazolo[3,4-b]quinolin-1-yl)-[3-(dimethylamino)phenyl]methanone]	-4%	-5%	7%	-2%	-1%	6%
COc1ccc2c(c1OC)c(=O)n1c3ccc(O)cc3c3ccnc2c31 [MW01, 5-Hydroxy-10,11-dimethoxy-9H-benzo[c]indolo[3,2,1-ij][1,5]naphthyridin-9-one]	0%	13%	5%	8%	23%	58%
